Laboratory results from ChEMBL document CHEMBL4342458, “Reisolation and Configurational Reinvestigation of Cottoquinazolines E-G from an Arthropod-Derived Strain of the Fungus Neosartorya fischeri” (2020).

Columns and labels:
Format in all cases: functional
Klebsiella pneumoniae = experiment: Antibacterial activity against Klebsiella pneumoniae ATCC BAA2146 assessed as reduction in microbial growth after 16 hrs by broth microdilution method; conditions: ATCC BAA2146, 16 h
Enterococcus faecalis = experiment: Antibacterial activity against Enterococcus faecalis ATCC 29212 assessed as reduction in microbial growth after 16 hrs by broth microdilution method; conditions: ATCC 29212, 16 h
Pseudomonas aeruginosa = experiment: Antibacterial activity against Pseudomonas aeruginosa ATCC 27853 assessed as reduction in microbial growth after 16 hrs by broth microdilution method; conditions: ATCC 27853, 16 h
Acinetobacter baumannii = experiment: Antibacterial activity against Acinetobacter baumannii ATCC 19606 assessed as reduction in microbial growth after 16 hrs by broth microdilution method; conditions: ATCC 19606, 16 h
Staphylococcus aureus = experiment: Antibacterial activity against methicillin-resistant Staphylococcus aureus ATCC 43300 assessed as reduction in microbial growth after 16 hrs by broth microdilution method; conditions: ATCC 43300, 16 h
Escherichia coli = experiment: Antibacterial activity against ESBL-producing Escherichia coli ATCC 35218 assessed as reduction in microbial growth after 16 hrs by broth microdilution method; conditions: ATCC 35218, 16 h

| Compound | MIC (Klebsiella pneumoniae) [µg/mL] | MIC (Enterococcus faecalis) [µg/mL] | MIC (Pseudomonas aeruginosa) [µg/mL] | MIC (Acinetobacter baumannii) [µg/mL] | MIC (Staphylococcus aureus) [µg/mL] | MIC (Escherichia coli) [µg/mL] |
| --- | --- | --- | --- | --- | --- | --- |
| C[C@@H]1N[C@H]2N(C1=O)c1ccccc1[C@@]21C[C@H]2C(=O)N[C@@H](O1)c1nc3ccccc3c(=O)n12 | ≥ 100 | ≥ 100 | ≥ 100 | ≥ 100 | ≥ 100 | ≥ 100 |
| C[C@@H]1N[C@H]2N(C1=O)c1ccccc1[C@@]21C[C@H]2C(=O)N(C)[C@@H](O1)c1nc3ccccc3c(=O)n12 | ≥ 100 | 16 | 32 | 32 | ≥ 100 | 8 |
| C[C@H]1C(=O)N2c3ccccc3[C@@]3(O)C[C@H]4C(=O)N[C@H](c5nc6ccccc6c(=O)n54)N1[C@@H]23 | ≥ 100 | ≥ 100 | ≥ 100 | ≥ 100 | ≥ 100 | ≥ 100 |
| NCC[C@H](O)C(=O)N[C@@H]1C[C@H](N)[C@@H](O[C@H]2O[C@H](CN)[C@@H](O)[C@H](O)[C@H]2O)[C@H](O)[C@H]1O[C@H]1O[C@H](CO)[C@@H](O)[C@H](N)[C@H]1O [AMIKACIN] | 8 | – | 2 | 2 | – | 4 |
| CO/N=C(\C(=O)N[C@@H]1C(=O)N2C(C(=O)O)=C(CSc3nc(=O)c(O)nn3C)CS[C@H]12)c1csc(N)n1 [CEFTRIAXONE] | 8 | – | 2 | 8 | – | 8 |
| CN[C@H](CC(C)C)C(=O)N[C@H]1C(=O)N[C@@H](CC(N)=O)C(=O)N[C@H]2C(=O)N[C@H]3C(=O)N[C@H](C(=O)N[C@H](C(=O)O)c4cc(O)cc(O)c4-c4cc3ccc4O)[C@H](O)c3ccc(c(Cl)c3)Oc3cc2cc(c3O[C@@H]2O[C@H](CO)[C@@H](O)[C@H](O)[C@H]2O[C@H]2C[C@](C)(N)[C@H](O)[C@H](C)O2)Oc2ccc(cc2Cl)[C@H]1O [VANCOMYCIN] | – | 0.5 | – | – | – | – |
